Measured values: patent publication US20010048942A1, “Dutasteride to prevent and treat atherosclerosis” (priority 2000, published 2001)

Tested on: patients of the practice
Test: second study: questionnaire on cardiac events in patients of the practice treated with finasteride vs control group
Assay type: in vivo, human
Conditions: 4 events over 242 patient-years; control 3.5%/yr.
Protocol: Finasteride was being administered at a dosage of a single oral 5 mg tablet a day. This is the same tablet used in treatment of BPH as disclosed in U.S. Pat. No. 5,175,155 and such dosage applies in the present invention. However, use of a 2 mg or 10 mg oral tablet is contemplated.
Two studies were undertaken to determine whether finasteride was, in fact, effective in lessening the incidence of heart disease and other complications of atherosclerosis.
In the second study patients of the practice were given a questionnaire. Various patients had been treated with finasteride for varying lengths of time. Only those on the drug for at least one year were considered. The average time on finasteride was 3 years. The number of cardiac events occurring in the patients taking finasteride was only 4 events over 242 patient-years. (1.6%/yr.) In the control group 26 events occurred in the 3 years prior over 732 patient-years. (3.5%/yr.)
The […] observed in cardiac events is believed to be significant. (90% Cl equal to 1.4% to 3.7%)

## CC(C)(C)NC(=O)[C@H]1CC[C@H]2[C@@H]3CC[C@H]4NC(=O)C=C[C@]4(C)[C@H]3CC[C@]12C [finasteride, 4-azaandrost-1-ene-17-carboxamide, N-(1,1-dimethylethyl)-3-oxo-(5a 17B)-]
  cardiac events per patient-year: 1.6 %/yr.
